Values of other authors, collected in patent US6991777B2, “Methods for in vivo evaluation of physiological conditions and/or organ or system function including methods to evaluate cardiopulmonary disorders such as chronic heart failure using polarized 129 Xe” (Medi-Physics, Inc., priority 2001, dated 2006).

Legend:
[1] = dogs, whole lung
[2] = after inhalation into the lungs

[Xe] [polarized ^129Xe, Xenon-129]
diffusion constant of xenon in water: about 2×10^−5 cm^2/s
time constant τ (uptake and/or dissolved gas-exchange transit time), blood compartment ([1]; blood compartment): ~70 ms
time constant τ (uptake and/or dissolved gas-exchange transit time), tissue compartment ([1]; tissue compartment): about 61 ms
fraction of inhaled gas that transits into the pulmonary blood [2]: roughly 0.3 % per/second
time until Xe begins to dissolve into the pulmonary blood stream [2]: under 100 ms
